What all share (type): cell-based
Experiment [1] has as its system TNF-α. Briefly: TNF-α cytokine activation in human PBMC (MSD assay). Particulars: Homo sapiens, PBMC, 24 h. The procedure:
(§1) The other below tests involving measuring the in vitro activity of some compounds of the disclosure on cytokines IFN-α2a, IL-6, IL29 and TNF-α were carried out using human PBMC (PBMCs).
(§2) The activity described below, with respect to TLR7, TLR8, IFN-α2a, IL-6, IL29 and TNF-α, is given by the half maximal effective concentration (EC50), which corresponds to the concentration required to obtain a 50% of the activation. The lower the EC50, the less the concentration of the compound is required to produce 50% of maximum activation and the higher the potency.
(§3) In Vitro Assay to Determine IFN-α2a, IL-6, IL29 and TNF-α Cytokine Activation:
(§4) Peripheral blood mononuclear cells were isolated by Ficoll density gradient centrifugation from peripheral blood samples obtained from healthy donors (EFS). Isolated PBMCs are washed twice with PBS and resuspended in RPMI-1640 medium supplement with 10% fetal bovine serum (FBS) at 5.10^5 cells/well in a 96-well plate. The cells were then incubated with the compounds to test at various doses (20 μM to 4.8.10-6 μM final) for 24 h at 37° C., 5% CO2. After 24 h treatment, the plates are centrifuged and the supernatant were collected and assayed for cytokines IFN-α2a, IL-6, IL29 and TNF-α using the Meso Scale Discovery (MSD) assay platform according to the manufacturer's instructions. Briefly, 25 μL of cell culture supernatants were incubated for 1 h at Room Temperature (RT) in custom Multi-Spot 96-well plates prior coated with capture antibodies. After washing, SULFO-TAG® labeled detection antibodies were added to each of the wells and incubated for 1 h RT before adding a read buffer.

Experiment [2] has as its system IL-6. As to the kind of experiment: IL-6 cytokine activation in human PBMC (MSD assay). Particulars: Homo sapiens, PBMC, 24 h, read-out: IL6 EC50. Here is the method: as §1, §2, §3, §4
The subject of experiment [3] is IFN-α2a. As to the kind of experiment: IFN-α2a cytokine activation in human PBMC (MSD assay). Particulars: Homo sapiens, PBMC, 24 h. Here is the method: as §1, §2, §3, §4
Experiment [4] relates to IL29. Briefly: IL29 cytokine activation in human PBMC (MSD assay). Particulars: Homo sapiens, PBMC, 24 h. Here is the method:
as §1, §2, §3, §4

Experiment [5] deals with T1, human TLR7 (Homo sapiens, UniProt Q9NYK1).
T1 construct: host or cells: HEK293 (HEK-Blue hTLR7)
T1 sequence (Q9NYK1 27-1049): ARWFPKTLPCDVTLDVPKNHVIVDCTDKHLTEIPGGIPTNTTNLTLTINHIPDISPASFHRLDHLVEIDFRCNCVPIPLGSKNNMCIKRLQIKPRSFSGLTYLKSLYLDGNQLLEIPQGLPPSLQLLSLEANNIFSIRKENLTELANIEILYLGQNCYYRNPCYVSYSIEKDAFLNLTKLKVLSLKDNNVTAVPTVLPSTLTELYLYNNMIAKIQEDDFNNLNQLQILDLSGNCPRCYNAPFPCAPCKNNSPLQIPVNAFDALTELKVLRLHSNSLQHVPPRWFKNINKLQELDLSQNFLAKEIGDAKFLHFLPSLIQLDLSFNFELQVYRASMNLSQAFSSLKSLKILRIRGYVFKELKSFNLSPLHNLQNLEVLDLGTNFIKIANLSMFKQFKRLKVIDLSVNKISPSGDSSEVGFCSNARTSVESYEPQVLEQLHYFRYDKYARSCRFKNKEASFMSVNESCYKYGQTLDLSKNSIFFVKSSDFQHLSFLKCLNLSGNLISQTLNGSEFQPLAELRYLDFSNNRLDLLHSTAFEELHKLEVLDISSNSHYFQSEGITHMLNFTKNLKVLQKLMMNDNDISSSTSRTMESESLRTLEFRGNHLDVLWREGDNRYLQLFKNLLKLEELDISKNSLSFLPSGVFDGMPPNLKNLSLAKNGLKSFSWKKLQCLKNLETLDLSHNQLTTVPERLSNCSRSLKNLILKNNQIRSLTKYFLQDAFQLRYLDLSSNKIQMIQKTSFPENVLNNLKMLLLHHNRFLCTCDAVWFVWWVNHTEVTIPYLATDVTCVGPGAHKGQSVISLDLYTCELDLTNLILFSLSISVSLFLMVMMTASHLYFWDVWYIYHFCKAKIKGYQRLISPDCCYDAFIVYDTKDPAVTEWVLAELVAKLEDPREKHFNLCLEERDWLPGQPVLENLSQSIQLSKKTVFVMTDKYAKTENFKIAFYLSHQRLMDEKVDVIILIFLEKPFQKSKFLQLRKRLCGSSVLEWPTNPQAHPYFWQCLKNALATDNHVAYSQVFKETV
As to the kind of experiment: HEK-Blue hTLR7 reporter cell assay (SEAP, NF-kB/AP-1) for stimulation of human TLR7. Particulars: HEK-Blue hTLR7 cells; for EC50: 24 h incubation, SEAP readout, read-out: TLR7_EC50; for activation at 20 µM: 24 h, at 20000 nM. In a few lines: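 HEK293 cells expressing hTLR7 with NF-κB/AP-1-driven SEAP reporter, seeded 3.10E4 cells/well, pre-incubated 18–24 h, then exposed to 3-fold compound dilutions (0.01–20 μM) for 24 h at 37 °C. Supernatant SEAP read with QUANTI-Blue; EC50 as concentration giving 50% activation.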

Experiment [6] concerns the target T2, human TLR8 (Homo sapiens, UniProt Q9NR97).
T2 construct: host or cells: HEK293 (HEK-Blue hTLR8)
T2 sequence (Q9NR97 27-1041): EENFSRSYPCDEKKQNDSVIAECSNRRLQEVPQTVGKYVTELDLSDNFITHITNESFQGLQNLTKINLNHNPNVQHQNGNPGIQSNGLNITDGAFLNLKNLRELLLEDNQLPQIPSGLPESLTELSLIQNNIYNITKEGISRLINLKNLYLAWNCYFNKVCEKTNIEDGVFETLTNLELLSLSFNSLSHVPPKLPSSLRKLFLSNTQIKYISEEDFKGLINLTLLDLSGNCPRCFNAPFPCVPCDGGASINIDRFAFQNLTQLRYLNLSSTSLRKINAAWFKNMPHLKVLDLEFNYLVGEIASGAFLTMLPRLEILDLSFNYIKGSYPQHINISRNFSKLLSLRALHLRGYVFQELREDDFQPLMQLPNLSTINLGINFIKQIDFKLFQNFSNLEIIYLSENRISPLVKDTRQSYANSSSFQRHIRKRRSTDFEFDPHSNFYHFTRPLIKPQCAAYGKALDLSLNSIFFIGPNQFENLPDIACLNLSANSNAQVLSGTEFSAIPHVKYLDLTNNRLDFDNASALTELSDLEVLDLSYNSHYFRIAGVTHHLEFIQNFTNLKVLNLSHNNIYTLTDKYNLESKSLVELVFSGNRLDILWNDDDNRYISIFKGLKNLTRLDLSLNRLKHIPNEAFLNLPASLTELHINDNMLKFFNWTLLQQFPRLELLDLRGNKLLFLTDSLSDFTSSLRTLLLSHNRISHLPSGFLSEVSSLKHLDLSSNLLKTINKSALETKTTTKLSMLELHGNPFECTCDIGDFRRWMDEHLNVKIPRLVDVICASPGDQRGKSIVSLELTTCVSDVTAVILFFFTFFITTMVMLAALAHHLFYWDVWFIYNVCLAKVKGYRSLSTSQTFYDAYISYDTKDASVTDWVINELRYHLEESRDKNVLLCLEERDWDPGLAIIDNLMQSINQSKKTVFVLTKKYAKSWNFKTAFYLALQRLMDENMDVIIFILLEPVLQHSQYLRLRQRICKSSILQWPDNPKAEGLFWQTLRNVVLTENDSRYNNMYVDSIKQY
As to the kind of experiment: HEK-Blue hTLR8 reporter cell assay (SEAP, NF-kB/AP-1) for stimulation of human TLR8. Particulars: HEK-Blue hTLR8 cells; for activation at 20 µM: 24 h, at 20000 nM. In a few lines:
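HEK293 cells carrying hTLR8 and a SEAP reporter driven by NF-κB/AP-1 sites were seeded at 3.10E4 cells/well and held 18 to 24 h at 37° C., 5% CO2 before compound addition. Supernatant SEAP measured with QUANTI-Blue™.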

As to `CCCCc1nc2c(N)nnc(OC(C)C)c2n1C[C@H]1CC[C@H](CN)CC1` [Compound 20], the EC50 stood at 2.4 µM in experiment [1]; 0.083 µM in experiment [2]; 0.0003 µM in experiment [3]; 0.0003 µM in experiment [4]; 0.028 µM in experiment [5].
Turning to `CCCCc1nc2c(N)nnc(N(C)Cc3ccc(CN(C)C)cc3)c2n1C` [Compound 43, 2-butyl-N7-(4-((dimethylamino)methyl)benzyl)-N7,1-dimethyl-1H-imidazo[4,5-d]pyridazine-4,7-diamine], the EC50 was determined as 0.021 µM in experiment [1], 0.003 µM in experiment [2], 0.022 µM in experiment [3] and 0.015 µM in experiment [4].
Take `CCCNc1nc2c(N)nnc(OC(C)C)c2n1Cc1ccc(CN)cc1` [Compound 163, 3-[[4-(aminomethyl)phenyl]methyl]-4-isopropoxy-N2-propyl-imidazo[4,5-d]pyridazine-2,7-diamine]: the activation at 20 µM in experiment [6] was 15.4%; in experiment [5] it was 16.7%.
For `CCNCc1nc2c(N)nnc(OC(C)C)c2n1Cc1ccc(CN)cc1` [Compound 164, 3-[[4-(aminomethyl)phenyl]methyl]-2-(ethylaminomethyl)-4-isopropoxy-imidazo[4,5-d]pyridazin-7-amine], the activation at 20 µM worked out at 10.8% in experiment [6] and 4.8% in experiment [5].
As for `CCCCc1nc2c(N)nnc(OC(C)C)c2n1CC1CCNCC1` [Compound 165, 2-butyl-7-isopropoxy-1-(piperidin-4-ylmethyl)-1H-imidazo[4,5-d]pyridazin-4-amine], the EC50 in experiment [6] (24 h incubation, SEAP readout, read-out: TLR8_EC50) is > 20 µM; in experiment [5] it was 1.57 µM.

Values taken from patent publication US12583861B2, “Derivatives of imidazo[4,5-d]pyridazine, their preparation and their therapeutic application” (SANOFI, priority 2021, dated 2026).
